Measurements taken from patent publication US10829484B2, “Compounds and methods for kinase modulation, and indications therefor” (Plexxikon Inc., priority 2015, dated 2020).
Changes are numbered by the printed parent chain.

What was measured:
[1] = target: T1, BaF3-FLT3-ITD-D835V (Homo sapiens, UniProt P36888, INS600HVDFREYEYD/D835V, cells depend on it); assay: CTB viability assay CS0048, BaF3-FLT3-ITD-D835V; type: cell-based, murine; details: BaF3-FLT3-ITD-D835V cells, CellTiter Blue viability, 72 hours; read-out: Cell Assay: CS0048: BaF3-FLT3-ITD-D835V CTB:IC50
T1 sequence (P36888 with tags, fused parts or gaps INS600HVDFREYEYD/D835V): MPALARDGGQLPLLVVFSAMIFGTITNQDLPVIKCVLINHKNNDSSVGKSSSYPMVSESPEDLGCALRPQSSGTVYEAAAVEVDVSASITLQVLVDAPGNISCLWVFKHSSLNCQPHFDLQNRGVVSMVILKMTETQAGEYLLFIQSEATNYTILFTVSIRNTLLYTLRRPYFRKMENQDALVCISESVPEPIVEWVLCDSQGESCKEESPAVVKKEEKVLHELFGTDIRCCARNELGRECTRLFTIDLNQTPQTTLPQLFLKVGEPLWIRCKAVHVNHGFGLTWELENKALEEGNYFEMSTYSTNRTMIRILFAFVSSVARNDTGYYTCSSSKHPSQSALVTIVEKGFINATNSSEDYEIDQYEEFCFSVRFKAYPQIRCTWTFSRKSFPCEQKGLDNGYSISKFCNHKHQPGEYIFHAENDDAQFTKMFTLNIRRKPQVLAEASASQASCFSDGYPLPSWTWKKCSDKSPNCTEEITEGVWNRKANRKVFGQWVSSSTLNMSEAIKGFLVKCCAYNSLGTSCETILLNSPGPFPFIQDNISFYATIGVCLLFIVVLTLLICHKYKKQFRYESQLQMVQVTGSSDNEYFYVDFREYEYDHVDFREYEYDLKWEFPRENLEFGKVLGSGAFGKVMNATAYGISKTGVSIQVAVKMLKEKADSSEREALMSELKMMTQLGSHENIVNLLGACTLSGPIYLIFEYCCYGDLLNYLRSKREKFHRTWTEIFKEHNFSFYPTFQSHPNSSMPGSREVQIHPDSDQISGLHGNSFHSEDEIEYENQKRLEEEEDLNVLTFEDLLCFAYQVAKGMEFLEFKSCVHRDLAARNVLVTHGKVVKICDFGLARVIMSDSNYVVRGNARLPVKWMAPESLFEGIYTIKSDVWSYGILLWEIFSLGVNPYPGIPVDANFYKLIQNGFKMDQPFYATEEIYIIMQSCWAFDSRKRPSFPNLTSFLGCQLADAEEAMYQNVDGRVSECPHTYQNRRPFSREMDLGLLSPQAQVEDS
Text: (§1) Gene constructs containing the human FLT3 sequences FLT3-ITD, FLT3-ITD-F691L, FLT3-ITD-D835V and FLT3-D835V were synthesized by reverse translation of the human protein sequences, with codons optimized for mammalian expression. Sequence of the internal tandem duplication (ITD) was based on the MV4-11 ITD sequence. Synthetic DNA constructs were cloned into the pMSCV puro retroviral vector (Clontech) and transfected into the EcoPack2-293 packaging cell line (Clontech) to generate retroviruses that contain the different FLT3 constructs. Viruses were transduced into the IL-3-dependent, murine […] cell line, Ba/F3, and selected for puromycin resistance and IL-3 independence. All cell lines were cloned by limiting dilution and clones were used for all subsequent cell assays. Overexpression of the FLT3 mutants in the Ba/F3 cells results in constitutive phosphorylation of the exogenous FLT3 protein, which is required for IL-3 independence.
(§2) Cell lines were serum starved overnight in media containing 0.5% FBS, plated at 15,000 cells/well in 96-well white-walled tissue culture plates, and 3-fold serial dilutions of test compounds of Formula I were added for 72 hours at 37° C. CellTiter Blue (CTB, Promega) was added and incubated for an additional 3 hours at 37° C. Fluorescence was read at 560 nm excitation, 590 nm emission. Wells with CTB+media only were used for background subtraction, and the fluorescence of compound-treated cells was normalized to the fluorescence of DMSO-treated cells. IC50s were determined using Igor Pro software. All compounds are assayed in duplicate cell plates.

[2] = target: T2, BaF3-FLT3-ITD-F691L (Homo sapiens, UniProt P36888, INS600HVDFREYEYD/F691L, cells depend on it); assay: CTB viability assay CS0047, BaF3-FLT3-ITD-F691L; type: cell-based, murine; details: BaF3-FLT3-ITD-F691L cells, CellTiter Blue viability, 72 hours; read-out: Cell Assay: CS0047:BaF3-FLT3-ITD-F691L CTB:IC50
T2 sequence (P36888 with tags, fused parts or gaps INS600HVDFREYEYD/F691L): T1 sequence (P36888 with tags, fused parts or gaps INS600HVDFREYEYD/D835V) with F701L, V845D
Text: as §1, §2

| SMILES | GI50 [1] | GI50 [2] |
| --- | --- | --- |
| Cc1nn(C)cc1Nc1ncc(-c2ccc(CC(=O)Nc3cc(C4(C(F)(F)F)CC4)on3)c(F)c2)c(N)n1 [P-149, 2-[4-[4-amino-2-[(1,3-dimethylpyrazol-4-yl)amino]pyrimidin-5-yl]-2-fluorophenyl]-N-[5-[1-(trifluoromethyl)cyclopropyl]isoxazol-3-yl]acetamide] | 10 to 50 nM | 10 to 50 nM |
| Cc1nn(C2CC2)cc1Nc1ncc(-c2ccc(CC(=O)Nc3cc(C4(C(F)(F)F)CC4)on3)c(F)c2)c(C)n1 [P-130, 2-[4-[2-[(1-cyclopropyl-3-methylpyrazol-4-yl)amino]-4-methyl-pyrimidin-5-yl]-2-fluorophenyl]-N-[5-[1-(trifluoromethyl)cyclopropyl]isoxazol-3-yl]acetamide] | 10 to 50 nM | 10 to 50 nM |
| Cn1cncc1Nc1ncc(-c2ccc(CC(=O)Nc3cc(C4(C(F)(F)F)CC4)on3)c(F)c2)cn1 [P-132, 2-[2-fluoro-4-[2-[(3-methylimidazol-4-yl)amino]pyrimidin-5-yl]phenyl]-N-[5-[1-(trifluoromethyl)cyclopropyl]isoxazol-3-yl]acetamide] | 10 to 50 nM | 10 to 50 nM |
| CCn1cncc1Nc1ncc(-c2ccc(CC(=O)Nc3cc(C4(C(F)(F)F)CC4)on3)c(F)c2)cn1 [P-147, 2-[4-[2-[(3-ethylimidazol-4-yl)amino]pyrimidin-5-yl]-2-fluoro-phenyl]-N-[5-[1-(trifluoromethyl)cyclopropyl]isoxazol-3-yl]acetamide] | 50 to 100 nM | 10 to 50 nM |
| CC(C)c1nn(C)cc1Nc1ncc(-c2ccc(CC(=O)Nc3cc(C4(C(F)(F)F)CC4)on3)c(F)c2)cn1 [P-168, 2-[2-fluoro-4-[2-[(3-isopropyl-1-methyl-pyrazol-4-yl)amino]pyrimidin-5-yl]phenyl]-N-[5-[1-(trifluoromethyl)cyclopropyl]isoxazol-3-yl]acetamide] | 10 to 50 nM | 10 to 50 nM |
